Each block holds one compound with its values, some of them ahead of it.
Tests used:
[1] = Hepatocyte Stability Assay, mouse hepatocytes; assay type: in vitro ADME; conditions: cryopreserved mouse hepatocytes, read-out: Mouse hepatocyte clearance
Protocol: Example 32: Hepatocyte Stability Assay
Preparation of working solutions: 10 mM stock solutions of test compound and positive control were prepared in DMSO. In separate conical tubes, the 10 mM solution of test compound and the positive control were diluted to 100 μM by combining 198 μL of 50% acetonitrile/50% water and 2 μL of 10 mM stock.
Preparation of Hepatocytes: Incubation medium (William's E Medium supplemented with GlutaMAX) and hepatocyte thawing medium were placed in a 37° C. water bath and allowed warming for at least 15 minutes prior to use. A vial of cryopreserved hepatocytes was transferred from storage, ensuring that vials remained at cryogenic temperatures until thawing process ensued. Cells were thawed by placing the vial in a 37° C. water bath and gently shaking the vials for 2 minutes. […] Using an AO/PI Staining, cells were counted and the viable cell density was determined. Cells with poor viability (<75% viability) were determined to be not acceptable for use. […]
Data Analysis: All calculations were carried out using Microsoft Excel. Peak areas were determined from extracted ion chromatograms. In vitro half-life (t1/2) of parent compound was determined by regression analysis of the percent parent disappearance vs. time curve.
The in vitro half-life (in vitro t1/2) was determined from the slope value: […]

AHR = target: T1, AHR (Homo sapiens, UniProt P35869); experiment: DRE-Luciferase Reporter Assay (HepG2 AhR-Lucia reporter cells); assay type: cell-based; conditions: AHR activating ligand at its EC50, luciferase read-out, read-out: HEPG2 Luc IC50
T1 construct: other cell line with a DRE-luciferase reporter stably transfected; endogenous in cells; host or cells: Human HepG2 liver carcinoma AhR-Lucia reporter cells
T1 sequence (P35869 11-848): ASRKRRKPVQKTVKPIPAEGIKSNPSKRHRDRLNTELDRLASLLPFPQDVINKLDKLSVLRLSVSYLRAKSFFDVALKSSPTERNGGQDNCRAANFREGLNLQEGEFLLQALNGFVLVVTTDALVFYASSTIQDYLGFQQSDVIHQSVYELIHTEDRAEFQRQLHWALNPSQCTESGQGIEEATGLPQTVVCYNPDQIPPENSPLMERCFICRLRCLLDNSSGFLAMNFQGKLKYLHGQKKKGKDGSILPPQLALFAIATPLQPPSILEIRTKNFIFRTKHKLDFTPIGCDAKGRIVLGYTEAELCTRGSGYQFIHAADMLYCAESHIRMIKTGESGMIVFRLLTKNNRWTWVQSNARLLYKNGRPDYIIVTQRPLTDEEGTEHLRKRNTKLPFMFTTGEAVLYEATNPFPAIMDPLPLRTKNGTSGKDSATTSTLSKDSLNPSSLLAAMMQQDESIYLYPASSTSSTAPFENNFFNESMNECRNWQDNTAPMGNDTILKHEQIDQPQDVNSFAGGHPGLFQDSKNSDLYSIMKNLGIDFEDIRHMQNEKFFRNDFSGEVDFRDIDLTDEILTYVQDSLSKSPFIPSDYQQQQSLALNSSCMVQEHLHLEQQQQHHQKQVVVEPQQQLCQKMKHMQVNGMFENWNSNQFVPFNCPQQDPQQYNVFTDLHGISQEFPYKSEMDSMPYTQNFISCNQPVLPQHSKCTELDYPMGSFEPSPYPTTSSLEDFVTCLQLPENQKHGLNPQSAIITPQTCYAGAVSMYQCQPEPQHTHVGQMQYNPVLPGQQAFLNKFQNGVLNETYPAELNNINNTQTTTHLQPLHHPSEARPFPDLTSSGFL
Text: Example 27: DRE-Luciferase Reporter Assay
AHR binds to Dioxin Responsive Elements (DRE) upstream of genes that it activates. One measure of AHR activity is activation of a reporter gene, such as luciferase, downstream of one or multiple DRE elements. Luciferase activity will reflect activation and inhibition of AHR in the cells expressing his reporter. 20000 Human HepG2 liver carcinoma—AhR-Lucia reporter cells or Human HT29 colon adenocarcinoma—AhR reporter cells or other cell line with a DRE-luciferase reporter stably transfected were plated in Eagle's Minimal Essential Medium, 10% heat-inactivated FBS, 1×non-essential amino acids Pen-Strep (10,000 U/mL) and Normocin (100 ug/mL) in plates (96-well, 384-well or other plates) and incubated overnight at 37° C. in a CO2 incubator and treated with and without AhR antagonists at a log dilution starting at 100 uM.
After 1 hr that cells were plated an AHR activating ligand, such as TCDD, kynurenine, ITE (2-(1H-indole-3-ylcarbonyl)-4-thiazolecarboxylic methyl ester), VAF347, BNF (beta-naphthoflavone), FICZ (6-formylindolo(3,2-b) carbazole) or other AHR ligands at their specific EC50 concentration, were added to the cells with or without AHR antagonist.
Cells were incubated for 24 or 48 hours or another time point and then, supernatant was analyzed for determination of luciferase activity as a read-out of the AHR activation or inhibition. Luciferase was measured with the commercial kit QUANTI-Luc™ assay solution kit from Invivogen following the manufacturer's instructions.
The level of luciferase with only agonist ligand added was the maximum signal while the luciferase with […] was the minimum signal. IC50 values were determined as the concentration which inhibits half of the luciferase activity. “A” indicates an IC50 value less than 100 nM, “B” indicates an IC50 between 100 and 500 nM, “C” indicates an IC50 above 500 nM.

SMILES: Cc1ccccc1-c1ccc2nc(NC(=O)c3ccccn3)sc2n1 [Product 8, N-(5-(o-tolyl)thiazolo[5,4-b]pyridin-2-yl)picolinamide]
CLint scaled at 1 µM [1]: > 50 mL/min/kg
IC50 (AHR): < 100 nM

SMILES: COc1ccccc1-c1ccc2nc(NC(=O)c3ccccn3)sc2n1 [Product 12, N-(5-(2-methoxyphenyl)thiazolo[5,4-b]pyridin-2-yl)picolinamide]
IC50 (AHR): < 100 nM

SMILES: Cc1ccccc1-c1ccc2nc(NC(=O)c3ccnn3C)sc2n1 [Product 15, 1-Methyl-N-(5-(o-tolyl)thiazolo[5,4-b]pyridin-2-yl)-1H-pyrazole-5-carboxamide]
IC50 (AHR): < 100 nM

SMILES: CN(C)c1ccccc1-c1ccc2nc(NC(=O)c3ccnn3C)sc2n1 [Product 18, N-(5-(2-(dimethylamino)phenyl)thiazolo[5,4-b]pyridin-2-yl)-1-methyl-1H-pyrazole-5-carboxamide]
IC50 (AHR): < 100 nM

SMILES: COc1ccccc1-c1ccc2nc(NC(=O)c3ccnn3C)sc2n1 [Product 25, N-(5-(2-methoxyphenyl)thiazolo[5,4-b]pyridin-2-yl)-1-methyl-1H-pyrazole-5-carboxamide]
CLint scaled at 1 µM [1]: > 50 mL/min/kg
IC50 (AHR): < 100 nM

The remaining lines, values ahead:

IC50 (AHR): < 100 nM
SMILES: Cc1ccccc1-c1ccc2nc(NC(=O)N3CCOCC3)sc2n1 [Product 39, N-(5-(o-tolyl)thiazolo[5,4-b]pyridin-2-yl)morpholine-4-carboxamide]

IC50 (AHR): < 100 nM
SMILES: Cn1ncnc1C(=O)Nc1cnc2cc(-c3cc(F)ccc3C(F)F)[nH]c2c1 [Product 47]

Reference: patent US20230234967A1, “Fused Azole Heterocycles as AHR Antagonists” (Senda Biosciences, Inc., priority 2021, published 2023)
